The source made the active and inactive calls.
Legend:
Large T antigen = Large T antigen (Simian virus 40, UniProt P03070); format: functional, Betapolyomavirus macacae;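 also: Confirmatory-stage PubChem screen for compounds that inhibit SV40 T antigen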
[1] = target: T1, Intestinal-type alkaline phosphatase (Mus musculus, UniProt P24822); test: PubChem AID 488874; format: functional
[2] = target: T2, Intestinal-type alkaline phosphatase (Homo sapiens, UniProt P09923); test: Dose Response confirmation of uHTS hits from a small molecule inhibitors of human intestinal alkaline phosphatase via a luminescent assay. [Related pubchem assays (depositor defined):AID2544, AID2574]; format: functional
T2 sequence (P09923 whole entry): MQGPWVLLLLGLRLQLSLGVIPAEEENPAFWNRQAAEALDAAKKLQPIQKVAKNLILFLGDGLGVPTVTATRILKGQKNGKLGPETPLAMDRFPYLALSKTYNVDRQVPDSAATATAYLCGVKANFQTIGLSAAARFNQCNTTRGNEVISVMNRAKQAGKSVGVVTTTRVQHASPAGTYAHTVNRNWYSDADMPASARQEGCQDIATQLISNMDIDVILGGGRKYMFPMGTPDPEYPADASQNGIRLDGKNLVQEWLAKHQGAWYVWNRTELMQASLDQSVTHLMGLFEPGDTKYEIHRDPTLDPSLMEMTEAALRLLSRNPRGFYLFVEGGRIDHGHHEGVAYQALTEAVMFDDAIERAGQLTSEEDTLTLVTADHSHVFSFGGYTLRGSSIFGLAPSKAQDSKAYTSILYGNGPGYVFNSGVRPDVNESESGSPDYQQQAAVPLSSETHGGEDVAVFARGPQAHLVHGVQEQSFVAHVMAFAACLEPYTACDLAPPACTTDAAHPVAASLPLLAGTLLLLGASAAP

[3] = target: T2, Intestinal-type alkaline phosphatase; test: human IAP inhibitors, dose response, biochemical, luminescent, uHTS hits, set 2 (AID 488793); format: functional
Leucine aminopeptidase = target: T3, Leucine aminopeptidase (Plasmodium falciparum 3D7, UniProt Q8IL11); test: P. falciparum M17LAP inhibitors, primary screen, biochemical, fluorogenic H-Leu-NHMec substrate, 1536-well (AID 1619); format: functional
T3 sequence (Q8IL11 whole entry): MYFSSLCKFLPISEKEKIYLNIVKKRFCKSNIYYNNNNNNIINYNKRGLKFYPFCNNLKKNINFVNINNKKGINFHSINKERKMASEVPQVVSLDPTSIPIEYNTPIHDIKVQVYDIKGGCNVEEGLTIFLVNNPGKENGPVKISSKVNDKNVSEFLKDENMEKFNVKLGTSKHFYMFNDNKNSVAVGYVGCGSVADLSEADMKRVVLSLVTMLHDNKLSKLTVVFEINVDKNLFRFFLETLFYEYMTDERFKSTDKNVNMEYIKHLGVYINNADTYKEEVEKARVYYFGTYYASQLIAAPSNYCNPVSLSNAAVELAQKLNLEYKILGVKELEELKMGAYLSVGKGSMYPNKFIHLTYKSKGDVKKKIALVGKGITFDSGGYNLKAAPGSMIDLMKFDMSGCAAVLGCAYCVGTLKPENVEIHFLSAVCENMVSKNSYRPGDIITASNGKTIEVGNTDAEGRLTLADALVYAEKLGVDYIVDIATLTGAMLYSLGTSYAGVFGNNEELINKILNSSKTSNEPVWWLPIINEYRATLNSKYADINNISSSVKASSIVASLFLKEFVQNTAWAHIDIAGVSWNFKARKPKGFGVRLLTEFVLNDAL

[4] = target: T4, Alkaline phosphatase, tissue-nonspecific isozyme (Homo sapiens, UniProt P05186); test: inhibition of tissue-nonspecific alkaline phosphatase – biochemical, dose response (AID 488882); format: functional
T4 sequence (P05186 whole entry): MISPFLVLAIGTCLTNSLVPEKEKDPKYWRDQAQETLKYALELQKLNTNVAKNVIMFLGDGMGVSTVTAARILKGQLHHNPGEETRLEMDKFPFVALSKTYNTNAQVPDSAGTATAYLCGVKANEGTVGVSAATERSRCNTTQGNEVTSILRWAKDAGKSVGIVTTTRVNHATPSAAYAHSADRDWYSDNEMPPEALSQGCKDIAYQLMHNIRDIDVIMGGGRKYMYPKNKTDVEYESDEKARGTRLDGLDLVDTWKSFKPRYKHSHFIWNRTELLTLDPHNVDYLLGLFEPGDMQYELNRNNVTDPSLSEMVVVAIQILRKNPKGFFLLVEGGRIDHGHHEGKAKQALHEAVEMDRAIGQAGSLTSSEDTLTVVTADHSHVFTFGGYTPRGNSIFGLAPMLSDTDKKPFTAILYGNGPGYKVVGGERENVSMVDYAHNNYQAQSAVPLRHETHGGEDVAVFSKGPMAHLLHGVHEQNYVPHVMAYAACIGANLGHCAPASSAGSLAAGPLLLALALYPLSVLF

HEK293 [5] = test: SAR analysis of compounds that are cytotoxic to HEK293 - Set 3. [Related pubchem assays (depositor defined):AID1575, AID1578, AID1848, AID1849, AID2001, AID2333, AID2334, AID2335, AID2337, AID2469]; format: functional, cell-based; conditions: Homo sapiens
Tumor necrosis factor [6] = target: T5, Tumor necrosis factor (Homo sapiens, UniProt P01375); test: TNFa-triggered NF-kB activation inhibitors, SAR follow-up, cell-based, revised (AID 2337); format: functional
T5 sequence (P01375 whole entry, the tested form may be a part): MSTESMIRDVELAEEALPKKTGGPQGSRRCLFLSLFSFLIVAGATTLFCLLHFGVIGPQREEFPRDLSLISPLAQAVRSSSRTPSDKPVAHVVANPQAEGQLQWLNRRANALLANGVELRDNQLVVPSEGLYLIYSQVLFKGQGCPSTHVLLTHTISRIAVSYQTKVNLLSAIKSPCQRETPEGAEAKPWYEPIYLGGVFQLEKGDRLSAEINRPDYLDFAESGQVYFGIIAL

[7] = target: T6, Nucleotide-binding oligomerization domain-containing protein 1 (Homo sapiens, UniProt Q9Y239); test: SAR analysis of compounds that inhibit NOD1 - Set 3. [Related pubchem assays (depositor defined):AID1566, AID1575, AID1578, AID1849, AID1852, AID2333, AID2335, AID2466]; format: functional
T6 sequence (Q9Y239 whole entry): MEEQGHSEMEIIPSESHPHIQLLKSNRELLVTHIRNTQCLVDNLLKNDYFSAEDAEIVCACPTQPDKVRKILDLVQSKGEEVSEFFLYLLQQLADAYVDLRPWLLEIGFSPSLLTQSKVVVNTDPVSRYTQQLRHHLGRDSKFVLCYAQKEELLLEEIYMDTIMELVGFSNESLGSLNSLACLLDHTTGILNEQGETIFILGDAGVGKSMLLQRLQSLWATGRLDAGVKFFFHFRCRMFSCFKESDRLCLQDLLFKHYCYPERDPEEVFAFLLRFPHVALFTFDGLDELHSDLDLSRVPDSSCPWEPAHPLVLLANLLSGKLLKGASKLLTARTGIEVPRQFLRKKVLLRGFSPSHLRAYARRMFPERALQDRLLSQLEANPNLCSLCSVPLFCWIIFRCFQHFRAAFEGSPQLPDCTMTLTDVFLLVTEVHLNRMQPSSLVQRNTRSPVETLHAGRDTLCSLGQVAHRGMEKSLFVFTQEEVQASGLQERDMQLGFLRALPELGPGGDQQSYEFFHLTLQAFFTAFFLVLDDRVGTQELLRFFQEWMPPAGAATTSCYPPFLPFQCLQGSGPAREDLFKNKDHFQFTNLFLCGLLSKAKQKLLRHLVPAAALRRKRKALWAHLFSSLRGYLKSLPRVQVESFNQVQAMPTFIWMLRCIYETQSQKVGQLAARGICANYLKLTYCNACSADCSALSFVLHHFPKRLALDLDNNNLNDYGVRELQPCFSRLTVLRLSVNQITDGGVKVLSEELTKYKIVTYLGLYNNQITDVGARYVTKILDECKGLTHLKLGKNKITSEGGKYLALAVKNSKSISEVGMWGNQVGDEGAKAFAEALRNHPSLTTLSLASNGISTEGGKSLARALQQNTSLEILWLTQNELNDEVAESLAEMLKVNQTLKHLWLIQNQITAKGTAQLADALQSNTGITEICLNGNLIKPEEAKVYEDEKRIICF

Tumor necrosis factor [8] = target: T5, Tumor necrosis factor; test: TNFa-triggered NF-kB activation inhibitors, SAR follow-up, cell-based, set 3 (AID 2801); format: functional
HEK293 [9] = test: cells; conditions: Homo sapiens
[10] = target: Nucleotide-binding oligomerization domain-containing protein 2 (Homo sapiens, UniProt Q9HC29); test: NOD2 signaling inhibitors, analog potency, SAR follow-up, cell-based, set 3 (AID 2799); format: functional
Chain of Nucleotide-binding oligomerization domain-containing protein 2 (Q9HC29 whole entry, the tested form may be a part): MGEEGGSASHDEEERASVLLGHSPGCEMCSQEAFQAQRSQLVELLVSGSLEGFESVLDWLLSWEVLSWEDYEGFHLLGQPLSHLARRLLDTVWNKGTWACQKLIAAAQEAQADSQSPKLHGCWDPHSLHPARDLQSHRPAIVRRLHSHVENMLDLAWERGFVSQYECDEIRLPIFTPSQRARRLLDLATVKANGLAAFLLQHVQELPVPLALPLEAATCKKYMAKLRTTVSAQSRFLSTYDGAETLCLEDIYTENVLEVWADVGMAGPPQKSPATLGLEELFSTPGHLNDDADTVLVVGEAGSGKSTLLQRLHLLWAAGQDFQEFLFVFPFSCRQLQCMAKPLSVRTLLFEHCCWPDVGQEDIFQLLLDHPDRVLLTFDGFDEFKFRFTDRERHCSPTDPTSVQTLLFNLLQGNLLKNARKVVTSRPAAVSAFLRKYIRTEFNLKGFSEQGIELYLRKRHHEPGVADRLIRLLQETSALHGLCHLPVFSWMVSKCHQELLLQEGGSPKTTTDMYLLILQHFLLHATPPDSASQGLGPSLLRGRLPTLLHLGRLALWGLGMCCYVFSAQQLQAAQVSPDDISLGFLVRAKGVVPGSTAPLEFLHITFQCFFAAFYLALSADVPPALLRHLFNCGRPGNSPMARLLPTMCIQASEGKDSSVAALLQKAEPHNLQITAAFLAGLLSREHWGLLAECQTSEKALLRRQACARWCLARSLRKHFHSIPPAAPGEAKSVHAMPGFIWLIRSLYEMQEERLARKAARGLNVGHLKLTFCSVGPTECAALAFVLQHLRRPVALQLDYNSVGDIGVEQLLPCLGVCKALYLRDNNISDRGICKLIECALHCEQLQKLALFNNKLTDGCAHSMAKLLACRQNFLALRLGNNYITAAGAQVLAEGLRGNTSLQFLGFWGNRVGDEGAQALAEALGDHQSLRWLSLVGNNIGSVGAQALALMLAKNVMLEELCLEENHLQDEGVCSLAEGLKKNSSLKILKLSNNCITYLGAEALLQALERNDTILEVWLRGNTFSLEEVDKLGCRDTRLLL

[11] = target: T1, Intestinal-type alkaline phosphatase; test: mouse intestinal alkaline phosphatase activators, dose response, biochemical, luminescence, uHTS hits (AID 488783); format: functional
[12] = target: T2, Intestinal-type alkaline phosphatase; test: activation of human intestinal alkaline phosphatase – biochemical, dose response (AID 488873); format: functional
[13] = target: T4, Alkaline phosphatase, tissue-nonspecific isozyme; test: TNAP enzyme activators, dose response, selectivity assay for mouse IAP activator project, biochemical, TNAP isozyme, mouse IAP uHTS hits (AID 488880); format: functional

T1 sequence (P24822 whole entry): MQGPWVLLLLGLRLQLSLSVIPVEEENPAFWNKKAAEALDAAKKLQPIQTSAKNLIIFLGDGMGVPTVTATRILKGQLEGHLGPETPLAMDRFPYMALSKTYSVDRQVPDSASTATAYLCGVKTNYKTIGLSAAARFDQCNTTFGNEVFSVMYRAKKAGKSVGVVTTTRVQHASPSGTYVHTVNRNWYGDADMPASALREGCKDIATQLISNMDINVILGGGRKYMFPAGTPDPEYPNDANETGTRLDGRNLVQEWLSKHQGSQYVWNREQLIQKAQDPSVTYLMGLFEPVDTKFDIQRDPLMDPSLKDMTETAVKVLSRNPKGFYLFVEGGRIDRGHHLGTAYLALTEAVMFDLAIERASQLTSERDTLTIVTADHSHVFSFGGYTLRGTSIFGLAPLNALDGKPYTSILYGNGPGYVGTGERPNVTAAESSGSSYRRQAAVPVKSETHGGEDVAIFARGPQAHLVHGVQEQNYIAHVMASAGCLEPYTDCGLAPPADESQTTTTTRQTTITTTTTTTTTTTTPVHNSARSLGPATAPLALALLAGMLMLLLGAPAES
Chain of Large T antigen (P03070 whole entry): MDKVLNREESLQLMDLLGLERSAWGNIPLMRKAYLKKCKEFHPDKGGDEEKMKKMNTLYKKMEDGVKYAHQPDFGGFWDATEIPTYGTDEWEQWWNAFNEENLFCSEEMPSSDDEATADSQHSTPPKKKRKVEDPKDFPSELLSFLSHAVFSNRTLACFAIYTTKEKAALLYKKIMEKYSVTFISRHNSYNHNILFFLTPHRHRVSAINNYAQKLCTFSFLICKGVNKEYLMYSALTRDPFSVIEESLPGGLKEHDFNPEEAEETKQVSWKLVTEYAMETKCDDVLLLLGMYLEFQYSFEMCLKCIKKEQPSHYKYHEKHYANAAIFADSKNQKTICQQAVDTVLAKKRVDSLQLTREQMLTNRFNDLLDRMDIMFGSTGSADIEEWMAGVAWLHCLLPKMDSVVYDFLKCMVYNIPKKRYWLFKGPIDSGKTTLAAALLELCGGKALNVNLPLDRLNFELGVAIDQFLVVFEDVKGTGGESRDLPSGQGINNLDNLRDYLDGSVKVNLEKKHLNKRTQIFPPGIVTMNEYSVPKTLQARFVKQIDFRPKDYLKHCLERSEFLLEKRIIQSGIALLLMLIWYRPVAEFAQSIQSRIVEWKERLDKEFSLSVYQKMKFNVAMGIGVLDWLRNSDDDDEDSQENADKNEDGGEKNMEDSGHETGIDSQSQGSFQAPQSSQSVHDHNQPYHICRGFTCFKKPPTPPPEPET

O=C(O)C1OC(Oc2c(-c3ccc(O)c(O)c3)oc3cc(O)cc(O)c3c2=O)C(O)C(O)C1O (stereo not given)
IC50 (Large T antigen): 9.8 µM (active)
IC50 [1]: 3.29 µM (active)
IC50 [2]: 3.15 µM (active)
IC50 [3]: 0.891 µM (active)
IC50 (Leucine aminopeptidase): 48.2 µM (active)
IC50 [4]: > 100 µM (inactive)

Nc1cc(NC(=O)c2ccc3ccccc3c2O)ccc1Cl
IC50 (HEK293 [5]): > 20 µM (inactive)
IC50 (Tumor necrosis factor [6]): > 20 µM (inactive)
IC50 [7]: > 20 µM (inactive)
IC50 (Tumor necrosis factor [8]): > 20 µM (inactive)
IC50 (HEK293 [9]): > 20 µM (inactive)
IC50 [10]: > 20 µM (inactive)

O=C1CC(c2ccc(O)c(O)c2)Oc2cc(O)cc(O)c21 (stereo not given)
EC50 [11]: 54.1 µM (active)
EC50 [12]: 50.4 µM (active)
EC50 [13]: 81.8 µM (active)

— ChEMBL document CHEMBL1201862, “PubChem BioAssay data set” (2004)
